# Data from paper PMC5500990 (European Journal of Medicinal Chemistry, 2017).
# Entries after “also recorded” stand apart in the source; their conditions may differ. *1 amine or outer side, *2 acyl side, *3 side chain or, on linkers, in order; H or OH if unused. Where a SMILES comes first, the peptide text is derived from it. Where no end group is shown, it is not given here. [ ]: non-standard residue; d: D form. X1 = C=CC(C)(C)n1cc(C[C@@H](N[*:1])C(=O)[*:2])c2ccccc21; X3 = CCCCCn1cc(C[C@@H](N[*:1])C(=O)[*:2])c2ccccc21; X4 = CCCn1cc(C[C@@H](N[*:1])C(=O)[*:2])c2ccccc21; dTrp(1-Bu) = CCCCn1cc(C[C@@H](N)C(=O)O)c2ccccc21; X2 = CCn1cc(C[C@@H](N[*:1])C(=O)[*:2])c2ccccc21; dTrp(1-Me) = Cn1cc(C[C@@H](N)C(=O)O)c2ccccc21; dNMeF = CN[C@H](Cc1ccccc1)C(=O)O
# Experiments:
# H69 cells = test: Cell viability assay using resazurin dye, H69 cells; assay type: cell-based, human; details: for IC50: 48 h; for fold enhancement in cytotoxicity compared to tert-Prenyl^4th-NH2 (2): H69 cell line
# Experimental: (§1) Cell viability was evaluated by treating H69 and DMS79 cells with peptides 13–20 in the 0.1–30 μM range for 48 h, with subsequent use of the resazurin dye cell viability assay. IC50 values (Table 1) for all the peptides were derived from the dose response curves (Fig. S24). Table 1 also presents the IC50 values obtained for 1 and 2 previously. RPMI-1640 (with L-glutamine and NaHCO3) was obtained from Sigma-Aldrich. Heat Inactivated Fetal Bovine Serum (FBS) was obtained from Life Technologies. H69 and DMS79 SCLC cell lines were obtained from as previously stated. Cells were grown in 10% v/v FBS/RPMI-1640 (complete medium) and incubated at 37 °C in humidified air atmosphere of 5% CO2. Both, H69 and DMS79 cells are suspension cells and grow in aggregates. For the experimental part, cells were re-suspended in fresh complete medium. Dulbecco's PBS (without calcium chloride and magnesium chloride) and Resazurin sodium salt were obtained from Sigma-Aldrich. The peptide concentrations were calculated accurately using UV/VIS Spectrometer Perkin Elmer instrument and dilution of the stock concentration was made using 50% v/v FBS/sterile saline. Concentrations prepared were ranged from 0.6 to 0.002 mM. Cells were seeded in 96-well plates at a seeding density of 1 × 10^4 cells/190 μl/well in triplicates. Peptides were then added on the same day and incubated as the above conditions stated in Section 5.1. The amount of peptide solution added into each well was 10 μl, resulting in a final well concentration of 30 to 0.1 μM. Untreated control samples were also prepared. Samples for background fluorescence for the resazurin dye were also prepared using only complete medium. After 48 h incubation, resazurin dye (20 μl; 0.125 mg/ml in PBS) was added to each well and incubated as the above conditions stated in Section 5.1 for 5 h. Then, fluorescence readings were recorded using a Tecan Safire plate reader and % viability calculated. Assays were repeated three independent times. Graphs were generated using GraphPad Prism 7.00 software.
# DMS79 cells = test: Cell viability assay using resazurin dye, DMS79 cells; assay type: cell-based, human; details: for IC50: 48 h; for fold enhancement in cytotoxicity compared to tert-Prenyl^4th-NH2 (2) / fold reduction in potency/cytotoxicity compared to 16: DMS79 cell line
# Experimental: as §1
# neat mouse plasma = details: 37 °C, up to 48 h
# [1] = S9 liver fraction (from mouse (CD-1), male, 20 mg/ml protein basis) with cofactors NADPH, UDPGA, GSH and PAPS; details: up to 3 h
# [2] = Stability in neat mouse plasma (RP-HPLC); assay type: in vitro ADME
# Excerpt: When optimising for functional activity there is also a need to assess whether the desired modification will negatively affect the stability of the peptide. Characterisation of the metabolism of peptides is useful to improve their stability in vivo. The finding that a carboxylic acid group, instead of the usual amide, at the C-terminus inactivates the cytotoxicity of 16 (results of 20 - Table 1) may compromise its use in vivo as protein de-amidation reactions are widespread in plasma. Peptides 16 and 19, being the most cytotoxic peptides, were exposed to the conditions of in vitro metabolism in plasma. Peptide 20 lacking the amide group was used as a control. Peptides 16, 19 and 20 were incubated in neat mouse plasma at 37 °C for 48 h. Peptide 2, previously tested over a shorter incubation time, was included for benchmarking purpose.
# Peptides were added to neat mouse plasma at a concentration of 400 μg/ml and incubated as the above conditions stated in Section 5.1. Aliquots (20 μl) were taken at 0, 3, 24 and 48 h. To the 20 μl sample, 80 μl of solution B was added and left for 5 min, prior to 1 min sonication to precipitate plasma proteins. The sample was then centrifuged for 5 min at full speed. Then 80 μl of the supernatant was added to 120 μl of solution A and transferred into a HPLC microvial to be analysed using the C8 column. A linear gradient elution was made starting with 100% of solution A and ending after 30 mins with 100% of solution B, with a flow rate of 1 ml/min and followed at λmax 220 nm. The injection volume was 36 μl. Assays were repeated three independent times. HPLC microvials at 0 and 48 h were characterised by ESIMS using the instrument stated in Section 4.1.
# [3] = Stability in S9 liver fraction from mouse with cofactors; assay type: in vitro ADME; details: period of 3 h
# Experimental: Peptides 16 and 19 were further subjected to the S9 liver fraction from mouse in the presence of cofactors for a period of 3 h. This would give further insight into the stability of the peptides towards Phase I and Phase II metabolising enzymes.
# Eppendorf® tubes were used for sample preparations. Chemicals, HPLC microvials, S9 liver fraction (from mouse (CD-1), male, 20 mg/ml protein basis, vial of 1.0 mL) and co-factors: beta-nictoinamide adenine dinucleotide disodium salt hydrate (NADPH), uridine 5’-diphosphoglucuronic acid trisodium salt (UDPGA), L-glutathione (GSH) and adenosine 3’-phosphate 5’-phosphosulfate lithium salt hydrate (PAPS) were obtained from Sigma-Aldrich. RP-HPLC analysis was performed using the instrument, C8 column and solutions (A and B) stated in Section 4.2.
# The preparation and analysis of the samples for peptides stability in the S9 liver fraction from mouse was similar to that for the mouse plasma studies, except that addition of cofactors for enzymes activation was required and the aliquots were taken at 0, 1, 2 and 3 h. The cofactors were added to initiate the study as previously described. Briefly, stock concentrations of NADPH (40 mM), UDPGA (20 mM), GSH (2 mM) and PAPS (2 mg/ml) were prepared using Tris buffer (200 mM) (pH 7.4) containing 2 mM magnesium chloride. […]
# serine protease = details: cited from earlier work
compound,measurement,setting,value
CCCn1cc(C[C@@H](NC(=O)[C@H](Cc2ccccc2)NC(=O)[C@@H](Cc2c[nH]c3ccccc23)NC(=O)[C@@H](Cc2ccccc2)NC)C(=O)N[C@@H](CC(C)C)C(N)=O)c2ccccc21 [Peptide 15] (H-[dNMeF][dW]F[X4]L-NH2),IC50,H69 cells,1570 ± 100 nM
same,IC50,DMS79 cells,1910 ± 30 nM
CN[C@H](Cc1ccccc1)C(=O)N[C@H](Cc1c[nH]c2ccccc12)C(=O)N[C@@H](Cc1ccccc1)C(=O)N[C@H](Cc1cn(C)c2ccccc12)C(=O)N[C@@H](CC(C)C)C(N)=O [Peptide 13] (H-[dNMeF][dW]F[dTrp(1-Me)]L-NH2),IC50,H69 cells,3980 ± 220 nM
same,times less active than 2,H69 cells; H69,~1.4 times
same,IC50,DMS79 cells,4030 ± 310 nM
DMePhe-DTrp-Phe-DTrp(N-butyl)-Leu-NH2 (H-[dNMeF][dW]F[dTrp(1-Bu)]L-NH2; SMILES CCCCn1cc(C[C@@H](NC(=O)[C@H](Cc2ccccc2)NC(=O)[C@@H](Cc2c[nH]c3ccccc23)NC(=O)[C@@H](Cc2ccccc2)NC)C(=O)N[C@@H](CC(C)C)C(N)=O)c2ccccc21),cleaved bond,neat mouse plasma,"Leu-NH2, 3 hrs"
same,not cleaved,[1],completely stable in S9 liver fraction (3 h)
DMePhe-DTrp-Phe-DTrp(N-tert-prenyl)-Leu-NH2 (H-[dNMeF][dW]F[X1]L-NH2; SMILES C=CC(C)(C)n1cc(C[C@@H](NC(=O)[C@H](Cc2ccccc2)NC(=O)[C@@H](Cc2c[nH]c3ccccc23)NC(=O)[C@@H](Cc2ccccc2)NC)C(=O)N[C@@H](CC(C)C)C(N)=O)c2ccccc21),cleaved bond,neat mouse plasma,"Leu-NH2, 3 hrs"
CCCCCn1cc(C[C@@H](NC(=O)[C@H](Cc2ccccc2)NC(=O)[C@@H](Cc2c[nH]c3ccccc23)NC(=O)[C@@H](Cc2ccccc2)NC)C(=O)N[C@@H](CC(C)C)C(N)=O)c2ccccc21 [Peptide 17] (H-[dNMeF][dW]F[X3]L-NH2),IC50,H69 cells,1800 ± 100 nM
same,IC50,DMS79 cells,2370 ± 60 nM
CCCCn1cc(C[C@@H](NC(=O)[C@H](Cc2ccccc2)NC(=O)[C@@H](Cc2c[nH]c3ccccc23)NC(=O)[C@@H](Cc2ccccc2)NC)C(=O)N[C@@H](CC(C)C)C(=O)O)c2ccccc21 [Peptide 20] (H-[dNMeF][dW]F[dTrp(1-Bu)]L-OH),IC50,H69 cells,> 30000 nM
same,IC50,DMS79 cells,> 30000 nM
same,% (± SE) of parent peptide to degradation product(s) in plasma studies,"[2]; 37 °C, 0 hr, n = 3",100%
same,% (± SE) of parent peptide to degradation product(s) in plasma studies,"[2]; 37 °C, 3 hrs, n = 3",100%
same,% (± SE) of parent peptide to degradation product(s) in plasma studies,"[2]; 37 °C, 24 hrs, n = 3",100%
same,% (± SE) of parent peptide to degradation product(s) in plasma studies,"[2]; 37 °C, 48 hrs, n = 3",100%
same,degradation in plasma (in words),"[2]; 37 °C, up to 48 h, RP-HPLC and MS",no sign of degradation; also recorded: complete stability in plasma
CCCCn1cc(C[C@@H](NC(=O)[C@H](Cc2ccccc2)NC(=O)[C@@H](Cc2cn(CCCC)c3ccccc23)NC(=O)[C@@H](Cc2ccccc2)NC)C(=O)N[C@@H](CC(C)C)C(N)=O)c2ccccc21 [Peptide 19] (H-[dNMeF][dTrp(1-Bu)]F[dTrp(1-Bu)]L-NH2),IC50,H69 cells,630 ± 50 nM
same,fold enhancement in cytotoxicity compared to tert-Prenyl^4th-NH2 (2),H69 cells,~4.5 fold
same,IC50,DMS79 cells,2310 ± 120 nM
same,fold enhancement in cytotoxicity compared to tert-Prenyl^4th-NH2 (2),DMS79 cells,~2 fold
same,fold reduction in potency/cytotoxicity compared to 16,DMS79 cells,~1.6 fold
same,% (± SE) of parent peptide to degradation product(s) in plasma studies,"[2]; 37 °C, 0 hr, n = 3",100%
same,% (± SE) of parent peptide to degradation product(s) in plasma studies,"[2]; 37 °C, 3 hrs, n = 3",98.67 ± 0.69%
same,% (± SE) of parent peptide to degradation product(s) in plasma studies,"[2]; 37 °C, 24 hrs, n = 3",> 80%
same,% (± SE) of parent peptide to degradation product(s) in plasma studies,"[2]; 37 °C, 24 hrs, n = 3, 1440 min",89.73 ± 0.68%
same,% (± SE) of parent peptide to degradation product(s) in plasma studies,"[2]; 37 °C, 48 hrs, n = 3",81%
same,% (± SE) of parent peptide to degradation product(s) in plasma studies,"[2]; 37 °C, 48 hrs, n = 3, 2880 min",81.00 ± 2.25%
same,stability in S9 liver fraction (in words),[3],completely stable
"CCCCn1cc(C[C@@H](NC(=O)[C@H](Cc2ccccc2)NC(=O)[C@@H](Cc2c[nH]c3ccccc23)NC(=O)[C@@H](Cc2ccccc2)NC)C(=O)N[C@@H](CC(C)C)C(N)=O)c2ccccc21 [Peptide 16, DMePhe-DTrp-Phe-DTrp(N-butyl)-Leu-NH2] (H-[dNMeF][dW]F[dTrp(1-Bu)]L-NH2)",IC50,H69 cells,1010 ± 20 nM
same,fold enhancement in cytotoxicity compared to tert-Prenyl^4th-NH2 (2),H69 cells,~3 fold
same,IC50,DMS79 cells,1430 ± 140 nM
same,fold enhancement in cytotoxicity compared to tert-Prenyl^4th-NH2 (2),DMS79 cells,~3 fold
same,% (± SE) of parent peptide to degradation product(s) in plasma studies,"[2]; 37 °C, 0 hr, n = 3",100%
same,% (± SE) of parent peptide to degradation product(s) in plasma studies,"[2]; 37 °C, 3 hrs, n = 3",94.30 ± 0.20%
same,% (± SE) of parent peptide to degradation product(s) in plasma studies,"[2]; 37 °C, 24 hrs, n = 3",> 80%
same,% (± SE) of parent peptide to degradation product(s) in plasma studies,"[2]; 37 °C, 24 hrs, n = 3, 1440 min",80.30 ± 0.32%
same,% (± SE) of parent peptide to degradation product(s) in plasma studies,"[2]; 37 °C, 48 hrs, n = 3",68.47 ± 0.23%
same,stability in S9 liver fraction (in words),[3],completely stable
CCCCn1cc(C[C@@H](NC(=O)[C@@H](Cc2ccccc2)NC)C(=O)N[C@@H](Cc2ccccc2)C(=O)N[C@H](Cc2c[nH]c3ccccc23)C(=O)N[C@@H](CC(C)C)C(N)=O)c2ccccc21 [Peptide 18] (H-[dNMeF][dTrp(1-Bu)]F[dW]L-NH2),IC50,H69 cells,4050 ± 170 nM
same,IC50,DMS79 cells,3880 ± 150 nM
same,fold reduction in potency/cytotoxicity compared to 16,DMS79 cells,3–4 fold
CCn1cc(C[C@@H](NC(=O)[C@H](Cc2ccccc2)NC(=O)[C@@H](Cc2c[nH]c3ccccc23)NC(=O)[C@@H](Cc2ccccc2)NC)C(=O)N[C@@H](CC(C)C)C(N)=O)c2ccccc21 [Peptide 14] (H-[dNMeF][dW]F[X2]L-NH2),IC50,H69 cells,1830 ± 30 nM
same,IC50,DMS79 cells,1920 ± 30 nM
[dR]PKP[dF]Q[dW]F[dW]LL-NH2,cleaved bond,serine protease,"Leu-NH2, major"
"C=CC(C)(C)n1cc(C[C@@H](NC(=O)[C@H](Cc2ccccc2)NC(=O)[C@@H](Cc2c[nH]c3ccccc23)NC(=O)[C@@H](Cc2ccccc2)NC)C(=O)N[C@@H](CC(C)C)C(N)=O)c2ccccc21 [Peptide 2, DMePhe-DTrp-Phe-DTrp(N-tert-prenyl)-Leu-NH2] (H-[dNMeF][dW]F[X1]L-NH2)",% (± SE) of parent peptide to degradation product(s) in plasma studies,"[2]; 37 °C, 0 hr, n = 3",100%
same,% (± SE) of parent peptide to degradation product(s) in plasma studies,"[2]; 37 °C, 24 hrs, n = 3, listed as tert-Prenyl^4th-NH2",~58%
same,"metabolised at 24 h, 400 μg/ml","[2]; after 24 h exposure, read-out: degraded in plasma",~42%
